In patent US9764002B2, “Dosage regimen for therapeutic method” (MADELEINE PHARMACEUTICALS PTY LTD, priority 2013, dated 2017):
Peptide text beside a SMILES is read from it.

How the values were obtained:
clinical = conditions: human, in vivo
Method: A cohort of 10 subjects with stable CHF and undergoing standard of care treatment was treated with the formulation as follows: • i) 2 sentinel subjects were treated with a one stage 6 hour sc infusion of VSDL at 900 μg/h (Subjects 1 and 3) • ii) 5 subjects were treated with a one stage 12 hour sc infusion of VSDL at 900 μg/h (Subjects 102, 103, 104, 105 and 106); and • iii) 3 subjects were treated with a bimodal sc infusion of VSDL at 900 μg/h for 5 hours and then 550 μg/h for 7 hours (Subjects 111, 112 and 114). The dose regimen for this trial was designed using a pharmacokinetic model for VSDL based on prior data. The final model was used to simulate the median and 90% prediction intervals for 1000 patients given VSDL at 900 μg/h for 5 h then 550 μg/h for 7 h. This dose regimen targeted a population value of 10 ng/ml for the period 6-12 h after the start of the infusion. The predictions of the model were compared to observed VSDL concentration data from the three subjects referred to at iii) above. A model where infusion rate (ml/h) and delivered volume (ml) affected KA was an acceptable empirical description of the data. This model reproduced the observed increase in VSDL concentrations at the end of a subcutaneous infusion. The net effect was generally that KA increased with time during subcutaneous infusions. […] The final model had acceptable predictive performance based on the Visual Predictive Checks (allowing for low number of subjects).

[1] = human, in vivo
Method: In our clinical studies, lead patients were dosed at 900 μg/h for 6 hours based on the standard calculation shown earlier to reach a target steady state blood plasma concentration of 10 ng/ml and plasma levels of VSDL measured. Six hours is more than five half-lives for VSDL and, as such, should result in a steady state blood plasma concentration. Having verified the target steady state blood plasma concentration from lead patients, then Cohort 1 “Part 1” received 900 μg/h for 12 hours so as to achieve target steady state blood plasma concentration. However, the target steady state blood plasma concentration was not observed and as such the dosing regime required modification. After significant postulation and modelling of the hypothetical behaviour of VSDL, the multimodal dosage regime was developed. Cohort 1 “Part 2” was introduced using the bimodal dosing regime in an effort to reach a steady state blood plasma concentration of 10 ng/ml. Cohort 1 “Part 2” patients received VSDL at 900 μg/h (ie initial dosage rate) for 5 hours (ie initial period), followed by 550 μg/h for 7 hours (ie maintenance dosage rate).

[2] = human, in vivo; remark: listed apart in the source

In the case of `CC(C)C[C@H](NC(=O)[C@H](C)NC(=O)[C@H](C)NC(=O)CNC(=O)[C@H](C)NC(=O)[C@H](CCC(=O)O)NC(=O)[C@H](CCC(=O)O)NC(=O)[C@H](CC(N)=O)NC(=O)[C@@H]1CCCN1C(=O)[C@H](CCC(=O)O)NC(=O)[C@H](CO)NC(=O)[C@H](CC(C)C)NC(=O)[C@@H](NC(=O)[C@H](CCC(N)=O)NC(=O)[C@@H]1CCCN1C(=O)[C@@H]1CCCN1C(=O)[C@@H](NC(=O)[C@@H](NC(=O)[C@@H](N)CCC(=O)O)C(C)C)C(C)C)C(C)C)C(=O)N[C@@H](CO)C(=O)N1CCC[C@H]1C(=O)N[C@@H](CC(C)C)C(=O)N1CCC[C@H]1C(=O)N[C@@H](CCC(=O)O)C(=O)N[C@H](C(=O)N1CCC[C@H]1C(=O)N1CCC[C@H]1C(=O)N[C@@H](Cc1c[nH]c2ccccc12)C(=O)N[C@H](C(=O)NCC(=O)N[C@@H](CCC(=O)O)C(=O)N[C@H](C(=O)N[C@@H](CO)C(=O)N1CCC[C@H]1C(=O)N[C@@H](C)C(=O)N[C@@H](CCC(N)=O)C(=O)N[C@@H](CCCNC(=N)N)C(=O)O)C(C)C)[C@@H](C)O)C(C)C` [VSDL] (H-EVVPPQVLSEPNEEAGAALSPLPEVPPWTGEVSPAQR-OH; N-terminus and C-terminus assumed), the “KA Absorption rate constant, Pop value” (clinical) is reported as 0.265 h⁻¹, the “KARATE Effect of infusion rate of KA, Pop value” (clinical) is reported as −0.135 and the “KAVOL Effect of infusion volume on KA, Pop value” (clinical) is reported as 0.222. The “LGT1 Logit F value, Pop value” (clinical) was −1.05, the “V Central volume, Pop value” (clinical) was 8.93 L and the “influence of creatinine clearance (CCL) and body mass index (BMI) on VSDL elimination kinetics” value (clinical) was “minor”. For the same compound, the clearance (clinical; CL Clearance, Pop value) was 263 mL/min, the clearance (clinical; CL Maximum Elimination rate, Pop value) was 447 mL/min and the “V2 Multiplier of V for sc bolus, Pop value” (clinical; sc) was 1.596. For the same compound, the “V3 Multiplier of V for sc infusion, Pop value” (clinical; sc) was 3.142, the bioavailability (clinical; sc, F Bioavailability, Pop value) was 25.9% and the “plasma concentration reached on continued increase beyond Css” value [1] was 30 ng/mL. The “Css reached when the dose was doubled” value ([1]; sc) was 20 ng/mL, the “steady state blood plasma concentration of VSDL (Css) achieved” value ([1]; sc) was 10 ng/mL and the “symptomatic hypotension from blood pressure drops” value [2] was “none of these resulted in symptomatic hypotension”.
